From patent EP1147080B1 (Wyeth Holdings Corporation, priority 1999, dated 2000)

Target: TNF-α converting enzyme (TACE) (Homo sapiens, UniProt P78536)
Test: Test procedure for measuring TACE inhibition (fluorescent peptidyl substrate)
Type: biochemical
Settings: Table 1

TNF-α converting enzyme (TACE), sequence (P78536 215-824): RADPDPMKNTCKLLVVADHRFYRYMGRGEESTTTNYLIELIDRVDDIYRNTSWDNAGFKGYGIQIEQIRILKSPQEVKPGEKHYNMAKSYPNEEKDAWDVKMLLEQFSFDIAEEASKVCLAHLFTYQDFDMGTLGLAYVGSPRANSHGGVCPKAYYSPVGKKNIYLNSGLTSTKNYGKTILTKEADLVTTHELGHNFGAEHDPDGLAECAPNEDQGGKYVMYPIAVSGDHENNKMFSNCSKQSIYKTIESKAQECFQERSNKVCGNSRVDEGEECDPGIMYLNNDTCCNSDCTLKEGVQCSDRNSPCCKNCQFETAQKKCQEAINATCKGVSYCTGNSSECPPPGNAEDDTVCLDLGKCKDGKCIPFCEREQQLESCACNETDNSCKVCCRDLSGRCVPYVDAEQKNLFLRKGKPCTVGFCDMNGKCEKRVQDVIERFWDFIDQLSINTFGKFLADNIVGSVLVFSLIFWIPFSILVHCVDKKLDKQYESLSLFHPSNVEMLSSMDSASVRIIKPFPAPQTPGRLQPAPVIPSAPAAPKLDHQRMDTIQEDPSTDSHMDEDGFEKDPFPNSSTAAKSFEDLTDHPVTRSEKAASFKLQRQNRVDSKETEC

| IC50 [nM] | Compound |
| --- | --- |
| 138 | CC#CCOc1ccc(SC(CCCCNC(=O)c2ccccc2CCc2ccccc2)C(=O)NO)cc1 (stereo not shown) [Example 15, N-[5-(4-But-2-ynyloxy-phenylsulfanyl)-5-hydroxycarbamoyl-pentyl]-2-phenethylbenzamide] |
| 43.7 | CC#CCOc1ccc(SC(CCCCNC(=O)c2cnc3ccccc3c2)C(=O)NO)cc1 (stereo not shown) [Example 17, Quinoline-3-carboxylic acid [5-(4-but-2-ynyloxy-phenylsulfanyl)-5-hydroxycarbamoylpentyl]-amide] |
| 36.9 | CC#CCOc1ccc(SC(CCCCNC(=O)CCCc2cccs2)C(=O)NO)cc1 (stereo not shown) [Example 18, 2-(4-But-2-ynyloxy-phenylsulfanyl)-6-(4-thiophen-2-yl-butyrylamino)-hexanoic acid hydroxyamide] |
| 20.1 | CC#CCOc1ccc(SC(CCCCNC(=O)c2nccc3ccccc23)C(=O)NO)cc1 (stereo not shown) [Example 21, Isoquinoline-1-carboxylic acid [5-(4-but-2-ynyloxy-phenylsulfanyl)-5-hydroxycarbamoylpentyl]-amide] |
| 32.8 | CC#CCOc1ccc(SC(CCCCNC(=O)Cc2csc3ccccc23)C(=O)NO)cc1 (stereo not shown) [Example 22, 6-(2-Benzo[b]thiophen-3-yl-acetylamino)-2-(4-but-2-ynyloxy-phenylsulfanyl)-hexanoic acid hydroxyamide] |
| 46.3 | CC#CCOc1ccc([S+]([O-])C(CCCCNC(=O)c2cnc3ccccc3c2)C(=O)NO)cc1 (stereo not shown) [Example 27, Quinoline-3-carboxylic acid [5-(4-but-2-ynyloxy-benzenesulfinyl)-5-hydroxycarbamoylpentyl]-amide] |
| 46.8 | CC#CCOc1ccc([S+]([O-])C(CCCCNC(=O)Cc2csc3ccccc23)C(=O)NO)cc1 (stereo not shown) [Example 32, 6-(2-Benzo[b]thiophen-3-yl-acetylamino)-2-(4-but-2-ynyloxy-benzenesulfinyl)-hexanoic acid hydroxyamide] |
| 35.6 | CC#CCOc1ccc([S+]([O-])C(CCCCNC(=O)Cc2c[nH]c3ccccc23)C(=O)NO)cc1 (stereo not shown) [Example 33, 2-(4-But-2-ynyloxy-benzenesulfinyl)-6-(2-1H-indol-3-yl-acetylamino)-hexanoic acid hydroxyamide] |
| 68.3 | CC#CCOc1ccc(S(=O)(=O)C(CCCCNC(=O)c2ccc3ccccc3n2)C(=O)NO)cc1 (stereo not shown) [Example 35, Quinoline-2-carboxylic acid [5-(4-but-2-ynyloxy-benzenesulfonyl)-5-hydroxycarbamoylpentyl]-amide] |
| 16.8 | CC#CCOc1ccc(S(=O)(=O)C(CCCCNC(=O)CN2C(=O)c3ccccc3C2=O)C(=O)NO)cc1 (stereo not shown) [Example 36, 2-(4-But-2-ynyloxy-benzenesulfonyl)-6-[2-(1,3-dioxo-1,3-dihydro-isoindol-2-yl)-acetylamino]-hexanoic acid hydroxyamide] |
| 39.9 | CC#CCOc1ccc(S(=O)(=O)C(CCCCNC(=O)c2cnc3ccccc3c2)C(=O)NO)cc1 (stereo not shown) [Example 38, Quinoline-3-carboxylic acid [5-(4-but-2-ynyloxy-benzenesulfonyl)-5-hydroxycarbamoylpentyl]-amide] |
| 59.1 | CC#CCOc1ccc(S(=O)(=O)C(CCCCNC(=O)C(c2ccccc2)c2ccccc2)C(=O)NO)cc1 (stereo not shown) [Example 40, 2-(4-But-2-ynyloxy-benzenesulfonyl)-6-diphenylacetylamino-hexanoic acid hydroxyamide] |
| 16.1 | CC#CCOc1ccc(SC(CCCCNC(=O)CNC(=O)CN2C(=O)c3ccccc3C2=O)C(=O)NO)cc1 (stereo not shown) [Example 45, 2-(4-But-2-ynyloxy-phenylsulfanyl)-6-{2-[2-(1,3-dioxo-1,3-dihydro-isoindol-2-yl)-acetylamino]-acetylamino}-hexanoic acid hydroxyamide] |
| 82.1 | CC#CCOc1ccc(SC(CCCCNC(=O)CNC(=O)C2c3ccccc3Oc3ccccc32)C(=O)NO)cc1 (stereo not shown) [Example 48, 9H-Xanthene-9-carboxylic acid {[5-(4-but-2-ynyloxy-phenylsulfanyl)-5-hydroxycarbamoylpentylcarbamoyl]-methyl}-amide] |
| 35.9 | CC#CCOc1ccc(SC(CCCCNC(=O)CNC(=O)c2nccc3ccccc23)C(=O)NO)cc1 (stereo not shown) [Example 50, Isoquinoline-1-carboxylic acid {[5-(4-but-2-ynyloxy-phenylsulfanyl)-5-hydroxycarbamoylpentylcarbamoyl]-methyl}-amide] |
| 22.4 | CC#CCOc1ccc(SC(CCCCNC(=O)CNC(=O)c2cccn2C)C(=O)NO)cc1 (stereo not shown) [Example 51, 1-Methyl-1H-pyrrole-2-carboxylic acid ([5-(4-but-2-ynyloxy-phenylsulfanyl)-5-hydroxycarbamoyl-pentylcarbamoyl]-methyl}-amide] |
| 27.2 | CC#CCOc1ccc([S+]([O-])C(CCCCNC(=O)CNC(=O)c2ccc3ccccc3n2)C(=O)NO)cc1 (stereo not shown) [Example 54] |

The remaining lines, values behind:

| Compound | IC50 [nM] |
| --- | --- |
| 2-(4-But-2-ynyloxy-benzenesulfinyl)-6-diphenylacetylamino-hexanoic acid hydroxyamide [Example 60] | 40.9 |
| CC#CCOc1ccc(SC(CCCCNC(=O)CN2C(=O)c3ccccc3C2=O)C(=O)NO)cc1 (stereo not shown) [Example 13, 2-(4-But-2-ynyloxy-phenylsulfanyl)-6-[2-(1,3-dioxo-1,3-dihydroiso-indol-2-yl)-acetylamino]-hexanoic acid hydroxyamide] | 42.5 |
| CC#CCOc1ccc(SC(CCCCNC(=O)c2ccc3ccccc3n2)C(=O)NO)cc1 (stereo not shown) [Example 14, Quinoline-2-carboxylic acid [5-(4-but-2-ynyloxy-phenylsulfanyl)-5-hydroxycarbamoylpentyl]-amide] | 62.9 |
| CC#CCOc1ccc(SC(CCCCNC(=O)Cc2ccc(Cl)c(Cl)c2)C(=O)NO)cc1 (stereo not shown) [Example 16, 2-(4-But-2-ynyloxy-phenylsulfanyl)-6-[2-(3,4-dichloro-phenyl)-acetylamino]-hexanoic acid hydroxyamide] | 24.9 |
| CC#CCOc1ccc(SC(CCCCNC(=O)C2c3ccccc3Oc3ccccc32)C(=O)NO)cc1 (stereo not shown) [Example 19, 9H-Xanthene-9-carboxylic acid [5-(4-but-2-ynyloxy-phenylsulfanyl)-5-hydroxycarbamoylpentyl]-amide] | 43.3 |
| CC#CCOc1ccc(SC(CCCCNC(=O)C(c2ccccc2)c2ccccc2)C(=O)NO)cc1 (stereo not shown) [Example 20, 2-(4-But-2-ynyloxy-phenylsulfanyl)-6-diphenylacetylamino-hexanoic acid hydroxyamide] | 88.6 |
| CC#CCOc1ccc([S+]([O-])C(CCCCNC(=O)CN2C(=O)c3ccccc3C2=O)C(=O)NO)cc1 (stereo not shown) [Example 24, 2-(4-But-2-ynyloxy-benzenesulfinyl)-6-[2-(1,3-dioxo-1,3-dihydro-isoindol-2-yl)-acetylamino]-hexanoic acid hydroxyamide] | 30 |
| CC#CCOc1ccc([S+]([O-])C(CCCCNC(=O)c2ccccc2CCc2ccccc2)C(=O)NO)cc1 (stereo not shown) [Example 25, N-[5-(4-But-2-ynyloxy-benzenesulfinyl)-5-hydroxycarbamoyl-pentyl]-2-phenethylbenzamide] | 43.5 |
| CC#CCOc1ccc([S+]([O-])C(CCCCNC(=O)Cc2ccc(Cl)c(Cl)c2)C(=O)NO)cc1 (stereo not shown) [Example 26, 2-(4-But-2-ynyloxy-benzenesulfinyl)-6-[2-(3,4-dichloro-phenyl)-acetylamino]-hexanoic acid hydroxyamide] | 29.9 |
| CC#CCOc1ccc([S+]([O-])C(CCCCNC(=O)CCCc2cccs2)C(=O)NO)cc1 (stereo not shown) [Example 28, 2-(4-But-2-ynyloxy-benzenesulfinyl)-6-(4-thiophen-2-yl-butyrylamino)-hexanoic acid hydroxyamide] | 26.6 |
| CC#CCOc1ccc(S(=O)(=O)C(CCCCNC(=O)C2c3ccccc3Oc3ccccc32)C(=O)NO)cc1 (stereo not shown) [Example 39, 9H-Xanthene-9-carboxylic acid [5-(4-but-2-ynyloxy-benzenesulfonyl)-5-hydroxycarbamoyl-pentyl]-amide] | 65.1 |
| CC#CCOc1ccc(S(=O)(=O)C(CCCCNC(=O)c2nccc3ccccc23)C(=O)NO)cc1 (stereo not shown) [Example 41, Isoquinoline-1-carboxylic acid [5-(4-but-2-ynyloxy-benzenesulfonyl)-5-hydroxycarbamoyl-pentyl]-amide] | 37.3 |
| CC#CCOc1ccc(S(=O)(=O)C(CCCCNC(=O)Cc2csc3ccccc23)C(=O)NO)cc1 (stereo not shown) [Example 42, 6-(2-Benzo[b]thiophen-3-yl-acetylamino)-2-(4-but-2-ynyloxy-benzenesulfonyl)-hexanoic acid hydroxyamide] | 24.9 |
| CC#CCOc1ccc(SC(CCCCNC(=O)CNC(=O)c2ccc3ccccc3n2)C(=O)NO)cc1 (stereo not shown) [Example 44, Quinoline-2-carboxylic acid {[5-(4-but-2-ynyloxy-phenylsulfanyl)-5-hydroxycarbamoylpentylcarbamoyl]-methyl}-amide] | 32.1 |
| CC#CCOc1ccc(SC(CCCCNC(=O)CNC(=O)c2ccccc2CCc2ccccc2)C(=O)NO)cc1 (stereo not shown) [Example 46] | 84.2 |
| CC#CCOc1ccc(SC(CCCCNC(=O)CNC(=O)c2cnc3ccccc3c2)C(=O)NO)cc1 (stereo not shown) [Example 47, Quinoline-3-carboxylic acid {[5-(4-but-2-ynyloxy-phenylsulfanyl)-5-hydroxycarbamoyl-pentylcarbamoyl]-methyl}-amide] | 18.9 |
| CC#CCOc1ccc(SC(CCCCNC(=O)CNC(=O)C(c2ccccc2)c2ccccc2)C(=O)NO)cc1 (stereo not shown) [Example 49, 2-(4-But-2-ynyloxy-phenylsulfanyl)-6-(2-diphenylacetylamino-acetylamino)-hexanoic acid hydroxyamide] | 53.8 |
| CC#CCOc1ccc(SC(CCCCNC(=O)CNC(=O)Cc2csc3ccccc23)C(=O)NO)cc1 (stereo not shown) [Example 52] | 70.2 |
| CC#CCOc1ccc([S+]([O-])C(CCCCNC(=O)CNC(=O)CN2C(=O)c3ccccc3C2=O)C(=O)NO)cc1 (stereo not shown) [Example 55, 2-(4-But-2-ynyloxy-benzenesulfinyl)-6-[2-(1,3-dioxo-1,3-dihydro-isoindol-2-yl)-acetylammo]-hexanoic acid hydroxyamide] | 38.5 |
| CC#CCOc1ccc(S(=O)(=O)C(CCCCNC(=O)CNC(=O)C(c2ccccc2)c2ccccc2)C(=O)NO)cc1 (stereo not shown) [Example 62, 2-(4-But-2-ynyloxy-benzenesulfonyl)-6-(2-diphenylacetylamino-acetylamino)-hexanoic acid hydroxyamide] | 31.9 |
